Test [1] has as its target FGFR4 (Homo sapiens, UniProt P22455). The test can be described thus: FGFR4 Caliper Assay (in vitro biochemical kinase analysis of FGFR4). The settings on record: read-out: Enzymatic activity FGFR4 IC50. The procedure: I. In Vitro Biochemical Kinase Analysis of FGFR4
FGFR4 Caliper Assay was used in the present invention to determine the inhibitory activities of the compounds against FGFR4. The detailed experimental procedure was as follows.
2. A reaction system is a mixture solution of 50 mM HEPES, pH 7.5, 1 mM DTT, 0.02% Tween 20, 0.02% BSA, 0.6% DMSO, 10 mM beta glycerol phosphate and 10 μM sodium orthovanadate and 16 mM MgCl2.
3. The reaction system was incubated at 30° C. for 40 minutes.
4. The reaction was terminated by adding a stop solution (100 mM HEPES, pH 7.5, 5% DMSO, 0.1% Caliper coating reagent, 10 mM EDTA and 0.015% Brij35).
5. The culture plate with the terminated kinase reaction was transferred to the Caliper LC 3000 workstation to read the data, the phosphorylated and unphosphorylated peptides were separated by using the Caliper microfluid migration shift technique, and the analyte was transferred by allowing a constant buffer flow through the chip, the migration of the substrate peptide was monitored by the labeled fluorescent signal, and the kinase activity was calculated by using the amount of the phosphate-based peptide formed.
6. Finally, IC50 values were determined by non-linear regression analysis of percent inhibition at different compound concentrations.

In test [2] the test system is Huh7 hepatocellular carcinoma cells. In words: FGFR4 cell proliferation experiment, Cell Titer Glo (CTG). Format: cell-based. The settings on record: Homo sapiens, Huh-7, 72 h, HuH-7 cells, 3 days; for IC50: concentration leading to absolute half growth inhibition; for EC50: concentration leading to half maximal growth inhibition. The procedure:
II. FGFR4 Cell Proliferation Experiment
Cell Titer Glo (CTG) experiment was used in the present invention to evaluate the functional effects of the compounds on cell proliferation. […] Compound-mediated inhibition of cell proliferation/survival was assessed by quantification of cellular ATP levels using CTG reagent (Promega, #G7573). The specific experimental procedure was as follows:
2. 10 μL of medium containing a compound concentration of 10 fold of its final test concentration was added;
3. The dose effect was evaluated by a 5-fold serial dilution of the test compound, starting from 10 μM.
4. After cells incubation for 3 days at 37° C. under 5% CO2, the effect of the inhibitor on cell proliferation was quantified after adding 50 μL of CTG and testing with luminescence.
Background: Cellular ATP, detected with luciferase, serves as a proxy for viable cell number.

Chain of FGFR4 (P22455 22-802): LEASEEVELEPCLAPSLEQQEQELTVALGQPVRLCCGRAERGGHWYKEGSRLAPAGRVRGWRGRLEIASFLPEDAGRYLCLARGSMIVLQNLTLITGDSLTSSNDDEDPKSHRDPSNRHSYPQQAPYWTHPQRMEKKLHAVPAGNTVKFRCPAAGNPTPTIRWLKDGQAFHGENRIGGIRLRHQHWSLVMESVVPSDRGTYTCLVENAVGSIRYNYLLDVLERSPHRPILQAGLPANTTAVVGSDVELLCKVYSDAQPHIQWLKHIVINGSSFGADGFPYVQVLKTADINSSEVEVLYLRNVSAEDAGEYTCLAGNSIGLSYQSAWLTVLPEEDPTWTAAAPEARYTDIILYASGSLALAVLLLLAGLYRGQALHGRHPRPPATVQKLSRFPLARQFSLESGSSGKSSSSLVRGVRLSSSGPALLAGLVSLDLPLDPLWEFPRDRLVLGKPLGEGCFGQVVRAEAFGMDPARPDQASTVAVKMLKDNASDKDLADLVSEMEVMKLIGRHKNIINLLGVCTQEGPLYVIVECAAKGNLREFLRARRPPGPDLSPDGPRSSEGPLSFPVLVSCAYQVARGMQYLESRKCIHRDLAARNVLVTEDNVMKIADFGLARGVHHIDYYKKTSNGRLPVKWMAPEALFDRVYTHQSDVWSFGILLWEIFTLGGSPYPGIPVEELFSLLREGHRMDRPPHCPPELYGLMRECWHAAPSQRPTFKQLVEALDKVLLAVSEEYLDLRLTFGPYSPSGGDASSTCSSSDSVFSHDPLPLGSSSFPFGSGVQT

With `[2H]C([2H])([2H])Nc1nc(-c2c(Cl)c(OC)cc(OC)c2Cl)cc2cnc(N[C@@H]3COC[C@@H]3NC(=O)C=C)nc12` [Example 771, N-((3R,4S)-4-((6-(2,6-dichloro-3,5-dimethoxyphenyl)-8-((methyl-d3)ami-no)pyrido[3,4-d]pyrimidin-2-yl)ami-no)tetrahydrofuran-3-yl)acrylamide], the IC50 in test [1] came to 0.0079 µM. In test [2], this molecule displayed an IC50 of 0.0323 µM and an EC50 of 0.0255 µM.
Take `C=CC(=O)Nc1cccc(C)c1Nc1cc2c(OC)nc(-c3c(Cl)c(OC)cc(OC)c3Cl)nc2cn1` [Example 10, N-(2-((2-(2,6-dichloro-3,5-dimethoxyphenyl)-4-methoxy-pyrido[3,4-d]pyrimidin-6-yl)amino)-3-methylphenyl) acrylamide]: the IC50 is 0.105 µM in test [1] and 4.82 µM in test [2]. In test [2], this molecule showed an EC50 of 3.52 µM.
Take `C=CC(=O)N[C@H]1COC[C@H]1Nc1ncc2cc(-c3c(Cl)c(OC)cc(OC)c3Cl)nc(NCC3CC3)c2n1` [Example 421, N-((3R,4S)-4-((8-((cyclopropylmethyl)amino)-6-(2,6-dichloro-3,5-dimethoxyphenyl)pyrido[3,4-d]pyrimidin-2-yl)amino)tetrahydrofuran-3-yl)acrylamide]: the IC50 in test [1] came to 0.0124 µM. In test [2], this molecule returned an IC50 of 0.01 µM and an EC50 of 0.0054 µM.
On to `C=CC(=O)N[C@H]1CCOC[C@H]1Nc1ncc2cc(-c3c(Cl)c(OC)cc(OC)c3Cl)ncc2n1` [Example 119, N-((3S,4S)-3-((6-(2,6-dichloro-3,5-dimethoxyphenyl)pyrido[3,4-d]pyrimidin-2-yl)amino)tetrahydro-2H-pyran-4-yl)acrylamide], for which the IC50 in test [1] is 0.166 µM. Also, in test [2], inhibition was half-maximal at 0.457 µM (IC50) and the response was half-maximal at 0.0781 µM (EC50).
On to `C=CC(=O)N[C@H]1CCOC[C@H]1Nc1ncc2cc(-c3c(F)c(OC)cc(OC)c3F)nc(N3CCC(OC)CC3)c2n1` [Example 795, N-((3S,4S)-3-((6-(2,6-difluoro-3,5-dimethoxyphenyl)-8-(4-methoxy-piperidin-1-yl)pyrido[3,4-d]pyrimidin-2-yl)amino)tetrahydro-2H-pyran-4-yl)acrylamide], for which the values for the IC50 in test [1] and in test [2] were 0.0075 µM and 0.0118 µM, respectively. In test [2], this molecule yielded an EC50 of 0.0095 µM.
Take `C=CC(=O)N[C@H]1COC[C@H]1Nc1ncc2cc(-c3c(Cl)c(OC)cc(OC)c3Cl)nc(-c3cnn(C)c3)c2n1` [Example 629, N-((3R,4S)-4-((6-(2,6-dichloro-3,5-di-methoxyphenyl)-8-(1-methyl-1H-pyrazol-4-yl)pyrido[3,4-d]pyrimidin-2-yl)amino)tetrahydrofuran-3-yl)acryl-amide]: the IC50 in test [1] was 0.0029 µM. In test [2], this molecule gave an IC50 of 0.004 µM and an EC50 of 0.0026 µM.
On to `C=CC(=O)N[C@H]1COC[C@H]1Nc1ncc2cc(-c3c(F)c(OC)cc(OC)c3F)nc(N3CC(OC)C3)c2n1` [Example 659, N-((3R,4S)-4-((6-(2,6-difluoro-3,5-dimethoxyphenyl)-8-(3-methoxyazeti-din-1-yl)pyrido[3,4-d]pyrimidin-2-yl)a-mino)tetrahydrofuran-3-yl)acryl-amide], for which the IC50 in test [1] turned out to be 0.0066 µM. In test [2], this molecule yielded an IC50 of 0.0243 µM and an EC50 of 0.018 µM.
`C=CC(=O)N[C@H]1COC[C@H]1Nc1ncc2cc(-c3c(Cl)c(OC)cc(OC)c3Cl)nc(NCCCN(C)C)c2n1` [Example 432, N-((3R,4S)-4-((6-(2,6-dichloro-3,5-di-methoxyphenyl)-8-((3-(dimethylami-no)propyl)amino)pyrido[3,4-d]pyrimi-din-2-yl)amino)tetrahydrofuran-3-yl) acrylamide]: the IC50 in test [1] was 0.106 µM; in test [2] it was 0.934 µM. Moreover, in test [2], the EC50 was 0.396 µM.
Taken in the same sequence, the figures for `C=CC(=O)N[C@H]1COC[C@H]1Nc1ncc2cc(-c3c(F)c(OC)cc(OC)c3F)nc(N3CCC(OC)C3)c2n1` (stereo partly drawn) [Example 678, N-((3R,4S)-4-((6-(2,6-difluoro-3,5-di-methoxyphenyl)-8-(3-methoxypyrro-lidin-1-yl)pyrido[3,4-d]pyrimidin-2-yl)amino)tetrahydrofuran-3-yl)acryl-amide] were 0.0065 µM, 0.0165 µM and 0.0133 µM.
For `C=CC(=O)N[C@H]1COC[C@H]1Nc1cc2cnc(-c3c(Cl)c(OC)cc(OC)c3Cl)cc2cn1` [Example 124, N-((3R,4S)-4-((7-(2,6-dichloro-3,5-dime-thoxyphenyl)-2,6-naphthyridin-3-yl)amino)tetrahydrofuran-3-yl)acrylamide], in test [1], the IC50 amounted to 0.0616 µM. Also, in test [2], half-maximal inhibition (IC50) required 0.556 µM and the EC50 was 0.303 µM.
In the same order, the values of `C=CC(=O)Nc1cccc(C)c1Nc1cc2c(=O)[nH]c(-c3c(Cl)c(OC)cc(OC)c3Cl)nc2cn1` [Example 5, N-(2-((2-(2,6-dichloro-3,5-dimethoxyphenyl)-4-oxo-3,4-dihydropyrido[3,4-d]pyrimidin-6-yl)amino)-3-methyl-phenyl)acrylamide] are 0.0261 µM, over 10 µM and over 10 µM.
In the same order, the values of `C=CC(=O)N[C@H]1COC[C@H]1Nc1ncc2cc(-c3c(Cl)c(OC)cc(OC)c3Cl)nc(NC[C@H]3CCCO3)c2n1` [Example 438A, N-((3R,4S)-4-((6-(2,6-dichloro-3,5-di-methoxyphenyl)-8-((((R)-tetrahydro-furan-2-yl)methyl)amino)pyrido[3,4-d]pyrimidin-2-yl)amino)tetrahydro-furan-3-yl)acrylamide] are 0.0035 µM, 0.0178 µM and 0.0099 µM.
In the case of `[2H]C([2H])([2H])Nc1nc(-c2c(Cl)c(OC([2H])([2H])[2H])cc(OC([2H])([2H])[2H])c2Cl)cc2cnc(N[C@@H]3COC[C@@H]3NC(=O)C=C)nc12` [Example 766, N-((3R,4S)-4-((6-(2,6-dichloro-3,5-bis(methoxy-d3)phenyl)-8-((methyl-d3)amino)pyrido[3,4-d]pyrimidin-2-yl)a-mino)tetrahydrofuran-3-yl)acrylamide], the IC50 in test [1] was 0.0083 µM. In addition, in test [2], the midpoint of inhibition, the IC50, lay at 0.0279 µM and the EC50 stood at 0.0198 µM.
In the same order, the values of `C=CC(=O)N[C@H]1COC[C@H]1Nc1ncc2cc(-c3c(Cl)c(OC)cc(OC)c3Cl)nc(NC)c2n1` [Example 433, N-((3R,4S)-4-((6-(2,6-dichloro-3,5-dimethoxyphenyl)-8-(methylamino)pyrido[3,4-d]pyrimidin-2-yl)amino)tetrahydrofuran-3-yl)acrylamide] are 0.0076 µM, 0.0261 µM and 0.0193 µM.
Consider `C=CC(=O)N[C@H]1CCOC[C@H]1Nc1ncc2cc(-c3c(Cl)c(OC)cc(OC)c3Cl)nc(NCC3CC3)c2n1` [Example 501, N-((3S,4S)-3-((8-((cyclopropylmeth-yl)amino)-6-(2,6-dichloro-3,5-dimeth-oxyphenyl)pyrido[3,4-d]pyrimidin-2-yl)amino)tetrahydro-2H-pyran-4-yl)acrylamide], for which the IC50 in test [1] was determined as 0.0157 µM. In test [2], this molecule came in with an IC50 of 0.0499 µM and an EC50 of 0.0178 µM.
Consider `C=CC(=O)N[C@H]1COC[C@H]1Nc1ncc2cc(-c3c(Cl)c(OC)cc(OC)c3Cl)nc(N3CC(F)(F)C3)c2n1` [Example 663, N-((3R,4S)-4-((6-(2,6-dichloro-3,5-dimethoxyphenyl)-8-(3,3-difluoroaze-tidin-1-yl)pyrido[3,4-d]pyrimidin-2-yl)amino)tetrahydrofuran-3-yl)acryl-amide], for which, in test [1], the IC50 is 0.0045 µM. For the same molecule, in test [2], 0.0035 µM corresponded to half-maximal inhibition (IC50) and it took 0.0023 µM to reach a half-maximal effect (EC50).
`C=CC(=O)N[C@H]1COC[C@H]1Nc1ncc2cc(-c3c(Cl)c(OC)cc(OC)c3Cl)nc(N3CC(C)OC(C)C3)c2n1` (stereo partly drawn) [Example 690, N-((3R,4S)-4-((6-(2,6-dichloro-3,5-dimethoxyphenyl)-8-(2,6-dimethyl-morpholino)pyrido[3,4-d]pyrimidin-2-yl)amino)tetrahydrofuran-3-yl)acryl-amide]: the figures for the IC50 in test [1] and in test [2] were 0.008 µM and 0.0121 µM, respectively. In addition, the EC50 in test [2] worked out at 0.0084 µM.
Taken in the same sequence, the figures for `C=CC(=O)Nc1cccc(C)c1Nc1cc2c(=O)n(CCOC)c(-c3c(Cl)c(OC)cc(OC)c3Cl)nc2cn1` [Example 11, N-(2-((2-(2,6-dichloro-3,5-dimethoxyphenyl)-3-(2-methoxyethyl)-4-oxo-3,4-dihydropyrido[3,4-d]pyrimidin-6-yl)amino)-3-methylphenyl) acrylamide] were 0.101 µM, 4.72 µM and 4.72 µM.

The term IC50 denotes the point on the concentration scale where inhibition reaches its midpoint. As a reminder, the EC50 is the concentration needed to bring the measured effect to its halfway point. Higher therefore signals lower potency in that assay.
